Among the test systems are CAKI-1; COLO 205; EKVX; HCC 2998; HCT-116; HL-60; HOP-62; HOP-92; LOX IMVI; Malme-3M; NCI-H460; NCI-H522; OVCAR-5; OVCAR-8; SF-295; SF-539; SK-MEL-28; SNB-19; U-251; ACHN.
What all share (assay): NCI anticancer screen, dose series, 48 h

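Briefly, cells in 96-well plates were exposed to five compound concentrations for 48 h, and endpoints were estimated by linear interpolation. GI50 = concentration required for 50% inhibition of growth.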 Active and inactive are the calls of the source. Rule as the data show it: active = GI50 up to about 1.1 µM and inactive = higher. Bounds are passed on as bounds.

On to `O=C1NC(c2cccc3ccccc23)Nc2ccc(O)cc21` (stereo unspecified), for which the GI50 in the assay with CAKI-1 is 30.5 µM (inactive); in the assay on COLO 205 it was 34.1 µM (inactive); with EKVX it was 42.3 µM (inactive); in the assay on HCC 2998, 27.2 µM (inactive); in the assay with HCT-116, 32.1 µM (inactive); in the assay on HL-60, 6.14 µM (inactive). Moreover, the GI50 is 31.8 µM (inactive) in the assay with HOP-62; 35 µM (inactive) with HOP-92; 16.2 µM (inactive) in the assay on LOX IMVI; 24.4 µM (inactive) in the assay with Malme-3M; 28 µM (inactive) in the assay on NCI-H460; 22.3 µM (inactive) in the assay with NCI-H522. For the same molecule, the GI50 in the assay on OVCAR-5 is 32.6 µM (inactive); in the assay with OVCAR-8 it was 36.9 µM (inactive); in the assay on SF-295, 27.5 µM (inactive); in the assay with SF-539, 33 µM (inactive); with SK-MEL-28, 47.1 µM (inactive); with SNB-19, 58.1 µM (inactive). The GI50 in the assay with U-251 was 38.8 µM (inactive).
For `CCCCC(NC(=O)CC)C(=O)O` (stereo unspecified), the GI50 in the assay on CAKI-1 was > 100 µM (inactive); in the assay with COLO 205 it was > 100 µM (inactive); with EKVX, > 100 µM (inactive); in the assay with HCC 2998, > 31.6 µM (inactive); in the assay on HCT-116, > 100 µM (inactive); with HL-60, > 100 µM (inactive). Also, the GI50 in the assay with HOP-62, in the assay with HOP-92, in the assay with LOX IMVI, with Malme-3M, with NCI-H460 and with NCI-H522 was > 100 µM (inactive) in each case. Also, the GI50 with OVCAR-5, in the assay on OVCAR-8, with SF-295, with SF-539, in the assay on SK-MEL-28 and in the assay on SNB-19 was > 100 µM (inactive) each time. Besides, the GI50 in the assay with U-251 was > 100 µM (inactive).
Consider `CCC1C(c2ccccc2O)c2cc3c(cc2OC1N1CCOCC1)OCO3` (stereo unspecified), for which the GI50 in the assay on ACHN is 13.3 µM (inactive); with CAKI-1, 16.6 µM (inactive); in the assay with COLO 205 it was 15.4 µM (inactive); with EKVX it was 12.8 µM (inactive); in the assay with HCC 2998 it was 17.3 µM (inactive); in the assay with HCT-116, 13.6 µM (inactive). The GI50 is 18.2 µM (inactive) in the assay with HL-60; 15.4 µM (inactive) with HOP-62; 13 µM (inactive) in the assay on HOP-92; 14.9 µM (inactive) in the assay with LOX IMVI; 13 µM (inactive) in the assay on Malme-3M; 14.3 µM (inactive) with NCI-H460. Besides, the GI50 in the assay with NCI-H522 was 12.9 µM (inactive); in the assay with OVCAR-5, 14.9 µM (inactive); in the assay on OVCAR-8, 20.8 µM (inactive); in the assay on SF-295 it was 14.9 µM (inactive); in the assay with SF-539, 16.3 µM (inactive); in the assay on SK-MEL-28, 17.6 µM (inactive). Also, the GI50 in the assay with SNB-19 was 15.3 µM (inactive); in the assay with U-251, 13.6 µM (inactive).
For `CC(C)=CCc1c(OC(=O)c2c(C)cc(O)cc2O)cc(CO)c(CO)c1O`, the GI50 was 14.4 µM (inactive) in the assay with ACHN; 5.48 µM (inactive) with CAKI-1; 17.9 µM (inactive) with COLO 205; 32.4 µM (inactive) with EKVX; 16.4 µM (inactive) in the assay with HCC 2998; 20.9 µM (inactive) in the assay on HCT-116. Besides, the GI50 was 4.5 µM (inactive) in the assay with HL-60; 17.7 µM (inactive) with HOP-92; 16.2 µM (inactive) in the assay with LOX IMVI; 17.5 µM (inactive) in the assay with Malme-3M; 17.6 µM (inactive) in the assay on NCI-H460; 18 µM (inactive) with NCI-H522. Moreover, the GI50 in the assay on OVCAR-5 was 20.4 µM (inactive); in the assay with OVCAR-8 it was 25 µM (inactive); in the assay on SF-295 it was 17.2 µM (inactive); with SF-539 it was 18.6 µM (inactive); in the assay on SK-MEL-28, 18.5 µM (inactive); with SNB-19, 8.07 µM (inactive). The GI50 in the assay with U-251 was 17.5 µM (inactive).
In the case of `CC(C)(C)[Si](C)(C)OC1CCOC1(O)c1ccccn1` (stereo unspecified), the GI50 with ACHN, in the assay with CAKI-1, in the assay with COLO 205, with EKVX, in the assay with HCC 2998 and in the assay on HCT-116 was > 100 µM (inactive) each time. In addition, the GI50 was 32 µM (inactive) with HL-60; > 100 µM (inactive) with HOP-62; > 100 µM (inactive) in the assay with HOP-92; > 100 µM (inactive) in the assay on LOX IMVI; > 100 µM (inactive) in the assay on Malme-3M; > 100 µM (inactive) in the assay on NCI-H460. Besides, the GI50 in the assay with NCI-H522, with OVCAR-5, in the assay with OVCAR-8, with SF-295, with SF-539 and with SK-MEL-28 was > 100 µM (inactive) each time. In addition, the results for the GI50 in the assay with SNB-19 and in the assay on U-251 were > 100 µM (inactive) and 39.6 µM (inactive), respectively.
Take `O=C(O)C(C(=O)O)P(=S)(S)c1ccccc1` (stereo unspecified): the GI50 with ACHN, in the assay on CAKI-1, in the assay on COLO 205, in the assay with EKVX, with HCC 2998 and with HCT-116 was > 100 µM (inactive) throughout. Also, the GI50 in the assay on HL-60, in the assay with HOP-62, with HOP-92, in the assay with LOX IMVI, in the assay on Malme-3M and with NCI-H460 was > 100 µM (inactive) throughout. Besides, the GI50 with NCI-H522, with OVCAR-5, with OVCAR-8, with SF-295, in the assay on SF-539 and in the assay on SK-MEL-28 was > 100 µM (inactive) throughout. The GI50 in the assay on SNB-19 and with U-251 was > 100 µM (inactive) in each case.
Turning to `Cc1c2cc[n+](C)cc2c(C)c2c1[nH]c1ccc(O)cc12` [ELLIPTINIUM ACETATE], the GI50 with CAKI-1 was 47.4 µM (inactive); in the assay with COLO 205, 21.8 µM (inactive); in the assay with EKVX, 38.2 µM (inactive); with HCC 2998 it was 49.4 µM (inactive); in the assay on HCT-116 it was 20.2 µM (inactive); with HL-60, 19 µM (inactive). In addition, the GI50 in the assay on HOP-62 was 4.06 µM (inactive); in the assay with HOP-92 it was 19.3 µM (inactive); in the assay on LOX IMVI, 31 µM (inactive); with Malme-3M it was 1.75 µM (inactive); with NCI-H460 it was 0.228 µM (active); with NCI-H522 it was 4.31 µM (inactive). Further, the GI50 in the assay on OVCAR-5 is 71.9 µM (inactive); in the assay with OVCAR-8 it was 11.6 µM (inactive); in the assay with SF-295 it was 5.79 µM (inactive); with SF-539 it was 12 µM (inactive); with SK-MEL-28 it was 6.87 µM (inactive); with SNB-19, 0.904 µM (active). For the same molecule, the GI50 in the assay on U-251 was 1.32 µM (inactive).

(Values after ChEMBL document CHEMBL1201862, “PubChem BioAssay data set” (2004).)
